In brackets after ≈: the same amount, converted by molar mass. Residues, ends and D or L forms follow the SMILES beside them. *: point of attachment. Octanoyl = CCCCCCCC(=O)*
What was measured:
S. epidermidis PCM2118 = assay type: cell-based, Staphylococcus epidermidis; conditions: PCM2118, 24 h
Procedure, shortened: (§1)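 Absorbance at 600 nm after 24 h incubation defines growth, with inhibition expressed as % of peptide-free inoculated wells and medium-only wells as 0%. Serial micro-dilution followed CLSI methods for aerobic bacteria (MHB, 37 °C) and yeasts (RPMI-1640–MOPS, 2% glucose, 35 °C).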

S. epidermidis PCM521 = assay type: cell-based, Staphylococcus epidermidis; conditions: PCM521, 24 h
Procedure, shortened: as §1

[1] = Dynamic light scattering of lipopeptide assemblies; assay type: physicochemical; conditions: DLS, sonicated 10 min, incubated 1 h, 90° side scatter
Description: The hydrodynamic diameters of the lipopeptide nanoaggregates were examined by the Litesizer 500 (Anton-Paar GmbH, Graz, Austria) at 25 °C. The measurements were carried out at various lipopeptide concentrations ranging from 0.5 to 2 mM and from 0.25 to 2 mM, in water and PBS, respectively. Two-fold serial dilutions were used to obtain the sequential concentrations. Each sample was sonicated for 10 min followed by incubation for 1 h at 25 °C and transferred to the polystyrene cuvette. The detector was positioned at a side scatter position (90°). The analysis of the obtained results and report generation was performed with KalliopeTM software (Anton-Paar GmbH, Graz, Austria).

C. glabrata CCM8270 = assay type: cell-based, Candida glabrata; conditions: CCM8270, 24 h
Procedure, shortened: as §1

With CCCCCCCC(=O)N[C@H](C(=O)N[C@@H](CCCCN)C(=O)N[C@@H](CCCCN)C(=O)N[C@H](C(=O)N[C@@H](CC(C)C)C(=O)N[C@@H](CO)C(=O)N[C@@H](CCCCN)C(=O)N[C@H](C(=O)N[C@@H](CCCCN)C(=O)N[C@@H](CCCCN)C(=O)N[C@@H](CC(C)C)C(=O)N[C@@H](CC(C)C)C(=O)N[C@@H](CCCCN)C(N)=O)[C@@H](C)CC)[C@@H](C)CC)[C@@H](C)CC [C8-LK6] (Octanoyl-IKKILSKIKKLLK-NH2) the “MIC, S. epidermidis PCM2118” value (S. epidermidis PCM2118) was 6.25 µg/mL (≈ 3.72 µM), the “MIC, S. epidermidis PCM521” value (S. epidermidis PCM521) was 6.25 µg/mL (≈ 3.72 µM) and the “hydrodynamic diameter, peak of highest scattering intensity” value ([1]; 0.25 mM in PBS pH 7.4, 25 °C) was 2596 ± 512 nm. For the same compound, the “hydrodynamic diameter, peak of highest scattering intensity” value ([1]; 0.5 mM salt-free aqueous solution, 25 °C) was 327 ± 102 nm, the hydrodynamic diameter ([1]; 2 mM in PBS pH 7.4, 25 °C) was 3047 ± 750 nm and the “MIC, C. glabrata CCM8270” value (C. glabrata CCM8270) was 25 µg/mL (≈ 14.9 µM).

From paper PMC9959048, “Lipidation of Naturally Occurring α-Helical Antimicrobial Peptides as a Promising Strategy for Drug Design” (International Journal of Molecular Sciences, 2023)
